Data set [1] concerns human prostate (PC-3) cancer cell line. Kind of data set: MTT cytotoxicity assay, PC-3. To be noted: Homo sapiens; for inhibition at 100 µM: read-out: % Inhibition PC-3; for IC50: read-out: IC50 (Mean ± SEM) PC-3. (Formazan colour is commonly taken as a measure of viable cells.)
Protocol: (§1) After 48 h incubation, the medium was aspirated and then 40 μL MTT salt (2.5 mg/mL) was added for a further 4 h. […] Doxorubicin was used as the positive control and 0.5% DMSO was used as the negative control.
For data set [2], the system named is human melanoma (A-375) cancer cell line. Put plainly: MTT cytotoxicity assay, A-375. To be noted: Homo sapiens; for inhibition at 100 µM: A-375, read-out: % Inhibition A-375; for IC50: A-375, read-out: IC50 (Mean ± SEM) A-375.
Protocol: as §1
The subject of data set [3] is human pancreatic (Paca-2) cancer cell line. Put plainly: MTT cytotoxicity assay, Paca-2. To be noted: Homo sapiens; for inhibition at 100 µM: PaCa-2, read-out: % Inhibition Paca-2; for IC50: PaCa-2, read-out: IC50 (Mean ± SEM) Paca-2.
Protocol: as §1
In data set [4] the test system is human colon (Caco-2) cancer cell line. Kind of data set: MTT cytotoxicity assay, Caco-2. Particulars: for % Inhibition Caco-2: Caco-2, at 100 µM, MTT, (-) No activity detected; for IC50: read-out: IC50 (Mean ± SEM) Caco-2, Caco-2, MTT, three independent determinations.
Protocol: as §1
Data set [5] relates to human melanoma (Mel-501) cancer cell line. Put plainly: MTT cytotoxicity assay, Mel-501. To be noted: Homo sapiens; for inhibition at 100 µM: read-out: % Inhibition Mel-501; for IC50: read-out: IC50 (Mean ± SEM) Mel-501.
Protocol: as §1

Structures are written as SMILES.

As for `O=c1cc(-c2ccccc2)c2ccc(O)cc2o1` [Compound 1, 7-hydroxy-4-phenyl-2H-chromen-2-one], the inhibition at 100 µM in data set [1] worked out at 55.7%; in data set [2] it was 95%; in data set [3] it was 79%; in data set [5] it was 96.2%. Besides, the results for the concentration for half-maximal inhibition (IC50) in data set [2], in data set [3] and in data set [5] were 12.9 ± 0.6 µM, 62.3 ± 1.3 µM and 28.6 ± 0.4 µM, respectively. Besides, the “% Inhibition Caco-2” value in data set [4] was determined as 40.5%.

Molecule `N#CCOc1ccc2c(-c3ccccc3)cc(=O)oc2c1` [Compound 2, 2-((2-Oxo-4-phenyl-2H-chromen-7-yl)oxy)acetonitrile] came in with a melting point of 183 to 184 °C. For the same molecule, the inhibition at 100 µM in data set [1] came to 10.5%. Further, the inhibition at 100 µM in data set [2] is 6.5%. The inhibition at 100 µM in data set [3] was 44.1%. For the same molecule, the inhibition at 100 µM in data set [5] turned out to be 35.6%.

For `O=c1cc(-c2ccccc2)c2ccc(OCc3nn[nH]n3)cc2o1` [Compound 3, 7-((2H-Tetrazol-5-yl)methoxy)-4-phenyl-2H-chromen-2-one], the melting point lay in the range of 219 to 221 °C. Also, in data set [1], the inhibition at 100 µM is 12.2%. The inhibition at 100 µM in data set [2] was determined as 55.3%. In addition, in data set [3], the inhibition at 100 µM turned out to be 55.6%. Moreover, the inhibition at 100 µM in data set [5] stood at 48.4%.

In turn, `CC(=O)OC[C@H]1O[C@@H](n2nnc(COc3ccc4c(-c5ccccc5)cc(=O)oc4c3)n2)[C@H](OC(C)=O)[C@@H](OC(C)=O)[C@H]1OC(C)=O` [Compound 5, 4-Phenyl-7-((1-(2,3,4,6-tetra-O-actyl-β-D-galactopyranosyl)-2H-tetrazol-5-yl)methoxy)-2H-chromen-2-one] yielded a melting point of 122 to 124 °C. The inhibition at 100 µM in data set [1] was 15%. In data set [2], the inhibition at 100 µM came out at 23.1%. The inhibition at 100 µM in data set [3] stood at 56.9%. Further, in data set [5], the inhibition at 100 µM worked out at 68.4% and the IC50 was 72.1 ± 1.2 µM.

Regarding `O=c1cc(-c2ccccc2)c2ccc(OCc3nnn([C@@H]4O[C@H](CO)[C@H](O)[C@H](O)[C@H]4O)n3)cc2o1` [Compound 7], the melting point was 204 to 205 °C. In addition, the inhibition at 100 µM in data set [1] came out at 0%. Besides, the inhibition at 100 µM in data set [2] stood at 13.8%. The inhibition at 100 µM in data set [3] is 21.3%. Also, the inhibition at 100 µM in data set [5] was 22.3%.

`O=c1cc(-c2ccccc2)c2ccc(OCc3nnn([C@@H]4OC[C@@H](O)[C@H](O)[C@H]4O)n3)cc2o1` [Compound 8] showed a melting point of 195 to 196 °C. Also, in data set [1], the inhibition at 100 µM is 98.1% and the IC50 worked out at 48.2 ± 0.7 µM. In data set [2], the inhibition at 100 µM was determined as 95% and the IC50 was determined as 13.9 ± 0.2 µM. Further, in data set [3], the inhibition at 100 µM came to 96.5% and the half-maximal inhibitory concentration (IC50) is 23.8 ± 0.9 µM. In data set [4], the “% Inhibition Caco-2” value was 97% and the concentration for half-maximal inhibition (IC50) stood at 52.5 ± 1.3 µM. Also, in data set [5], the inhibition at 100 µM stood at 98.1% and the 50% inhibitory concentration (IC50) was 19.4 ± 0.4 µM.

As to `O=c1cc(-c2ccccc2)c2ccc(OCc3nnn(CCOCCO)n3)cc2o1` [Compound 9, 7-((2-(2-(2-Hydroxyethoxy)ethyl)-2H-tetrazol-5-yl)methoxy)-4-phenyl-2H-chromen-2-one], the inhibition at 100 µM in data set [1] is 95.9%; in data set [2], 84.1%; in data set [3], 94.7%; in data set [5], 97.7%. Besides, the IC50 in data set [1] stood at 47.4 ± 1.4 µM; in data set [2], 15 ± 0.04 µM; in data set [3] it was 28.3 ± 0.7 µM; in data set [4], 38.1 ± 0.4 µM; in data set [5], 30.2 ± 0.5 µM. The “% Inhibition Caco-2” value in data set [4] was determined as 99.5%.

In turn, `C#CCOc1ccc2c(-c3ccccc3)cc(=O)oc2c1` [Compound 11, 4-Phenyl-7-(prop-2-yn-1-yloxy)-2H-chromen-2-one] came in with a melting point of 116 to 117 °C. Moreover, in data set [1], the inhibition at 100 µM is 16.7%. In addition, in data set [2], the inhibition at 100 µM amounted to 9.1%. Besides, in data set [3], the inhibition at 100 µM is 58.1%. In data set [4], the “% Inhibition Caco-2” value was determined as 0%. Also, the inhibition at 100 µM in data set [5] amounted to 44%.

For `CC(=O)OC[C@H]1O[C@@H](n2cc(COc3ccc4c(-c5ccccc5)cc(=O)oc4c3)nn2)[C@H](OC(C)=O)[C@@H](OC(C)=O)[C@H]1OC(C)=O` [Compound 14, 4-Phenyl-7-((1-(2,3,4,6-tetra-O-acetyl-β-D-galactopyranosyl)-1H-1,2,3-triazol-4-yl)methoxy)-2H-chromen-2-one], the melting point was in the range of 93 to 94 °C. For the same molecule, in data set [1], the inhibition at 100 µM amounted to 80.2% and the half-inhibitory concentration (IC50) came to 51.3 ± 1.6 µM. In data set [2], the inhibition at 100 µM amounted to 96.8% and the half-inhibitory concentration (IC50) is 12.4 ± 0.3 µM. For the same molecule, in data set [3], the inhibition at 100 µM stood at 94.9% and the 50% inhibitory concentration (IC50) came to 33.4 ± 0.6 µM. In data set [4], the “% Inhibition Caco-2” value is given as 89.8% and the IC50 came to 70.2 ± 1.4 µM. For the same molecule, in data set [5], the inhibition at 100 µM came out at 77.1% and the IC50 was determined as 65.1 ± 1.2 µM.

The molecule `O=c1cc(-c2ccccc2)c2ccc(OCc3cn([C@@H]4O[C@H](CO)[C@@H](O)[C@H](O)[C@H]4O)nn3)cc2o1` [Compound 16, 4-Phenyl-7-((1-(β-D-glucopyranosyl)-1H-1,2,3-triazol-4-yl)methoxy)-2H-chromen-2-one] showed a melting point of 180 to 182 °C. Besides, in data set [1], the inhibition at 100 µM was 95.8% and the IC50 amounted to 36.4 ± 1.1 µM. Moreover, in data set [2], the inhibition at 100 µM is 97.5% and the IC50 came to 16.3 ± 0.6 µM. In addition, in data set [3], the inhibition at 100 µM was determined as 96.9% and the IC50 is 23.8 ± 1.1 µM. Moreover, in data set [4], the “% Inhibition Caco-2” value turned out to be 99% and the half-maximal inhibitory concentration (IC50) came to 48.1 ± 0.4 µM. Further, in data set [5], the inhibition at 100 µM turned out to be 99.1% and the IC50 stood at 26.5 ± 0.7 µM.

As to `O=c1cc(-c2ccccc2)c2ccc(OCc3cn([C@@H]4O[C@H](CO)[C@H](O)[C@H](O)[C@H]4O)nn3)cc2o1` [Compound 17, 4-Phenyl-7-((1-(β-D-galactopyranosyl)-1H-1,2,3-triazol-4-yl)methoxy)-2H-chromen-2-one], the melting point was 185 to 186 °C. In data set [1], the inhibition at 100 µM was found to be 97.3% and the half-maximal inhibitory concentration (IC50) is 41 ± 2.1 µM. In data set [2], the inhibition at 100 µM came to 98.5% and the half-inhibitory concentration (IC50) was found to be 39.6 ± 0.5 µM. For the same molecule, in data set [3], the inhibition at 100 µM worked out at 96.3% and the half-maximal inhibitory concentration (IC50) was 33.3 ± 0.5 µM. Moreover, in data set [4], the “% Inhibition Caco-2” value came out at 95.6% and the half-maximal inhibitory concentration (IC50) is 48.1 ± 0.8 µM. Also, in data set [5], the inhibition at 100 µM turned out to be 98.6% and the IC50 was 35.8 ± 0.7 µM.

In turn, `O=c1cc(-c2ccccc2)c2ccc(OCc3cn([C@@H]4OC[C@@H](O)[C@H](O)[C@H]4O)nn3)cc2o1` [Compound 18, 4-Phenyl-7-((1-(β-D-Xylopyranosyl)-1H-1,2,3-triazol-4-yl)methoxy)-2H-chromen-2-one] displayed a melting point of 177 to 178 °C. In addition, in data set [1], the inhibition at 100 µM stood at 91.4% and the 50% inhibitory concentration (IC50) was found to be 37.6 ± 0.4 µM. For the same molecule, in data set [2], the inhibition at 100 µM was 97.9% and the IC50 is 8.5 ± 0.3 µM. In data set [3], the inhibition at 100 µM turned out to be 96.9% and the IC50 came to 36.4 ± 1.2 µM. For the same molecule, in data set [4], the “% Inhibition Caco-2” value was 99.4% and the half-inhibitory concentration (IC50) is 61.9 ± 1.3 µM. Moreover, in data set [5], the inhibition at 100 µM amounted to 98.5% and the IC50 came to 10 ± 0.1 µM.

In the case of `COc1cccc2c1C(=O)c1c(O)c3c(c(O)c1C2=O)C[C@@](O)(C(=O)CO)C[C@@H]3O[C@H]1C[C@H](N)[C@H](O)[C@H](C)O1` [Doxorubicin, reference compound], the concentration for half-maximal inhibition (IC50) is 6.8 ± 0.2 µM in data set [1]; 4.5 ± 0.07 µM in data set [2]; 19.4 ± 0.5 µM in data set [3]; 3.7 ± 0.2 µM in data set [4]; 3.5 ± 0.3 µM in data set [5].

In general, inhibition refers to the change of the read-out against control, counted positive when it falls. A word on the IC50: it is the concentration that gives 50% inhibition. The melting point is the temperature of the solid-liquid transition.

The record behind these values is PMC9000887, “Novel 1,2,3-Triazole-Coumarin Hybrid Glycosides and Their Tetrazolyl Analogues: Design, Anticancer Evaluation and Molecular Docking Targeting EGFR, VEGFR-2 and CDK-2” (Molecules, 2022).
